Read-outs that look alike come from different tables or passages of the source.
Columns and labels:
Format in all cases: cell-based, Human
[1] = test system: PC-9; experiment: CCK-8 proliferation, PC-9; details: read-out: Inhibitory activity (IC50) on tumor cell proliferation, PC-9
Summary of the method: (§1)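 Cells seeded, then after 24 h treated with 10 concentrations (top 10 µM, 5-fold serial dilution) for a line-specific time at 37°C, 5% CO2. Viability read by CCK-8; IC50 fitted from growth-inhibition curves.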

[2] = test system: H1975; experiment: CCK-8 proliferation, NCI-H1975 (H1975); details: read-out: Inhibitory activity (IC50) on tumor cell proliferation, H1975
Summary of the method: as §1

[3] = test system: H1975-1µM Osimertinib cells; experiment: CCK-8 proliferation, osimertinib-resistant H1975 cells
Method: (§2) The tumor cells used herein were cultured in a cell culture medium listed in table A1 at 37°C in an incubator with 5% CO2. Prior to experimentation, all cell lines used were correctly identified by STR profiling, and tested negative for mycoplasma contamination using a mycoplasma detection kit through routine screenings. Table A1. Tumor cells and cell culture medium used in the present disclosure
(§3) IC50 values of the compounds of the present disclosure (including the compounds in Table 1, and compounds of examples) were measured using the Meilun Cell Counting Kit-8 kit from Dalian Meilun Biotech Co., Ltd. Assay details are as follows: tumor cells were seeded in a 96-well plate at a density listed in Table A2. After 24h, 100 µL of the inoculated cells were treated with 0.5µL of the compounds of the present disclosure (including the compounds in Tables 1 and 2, and compounds of examples) at 10 different successively decreasing concentrations (starting at the highest concentration of 10µM; 5-fold serial dilutions). After the cells were treated with the compounds of the present disclosure for a period of time, the cell viability detection reagent was added to the culture medium for cell viability assessment according to the instructions provided with the CCK-8 kit. […] The growth inhibition of the compounds of the present disclosure on cells was plotted by Prism Graphpad software, and the IC50 values of the compounds of the present disclosure were calculated therefrom. […] Seeding protocol and treatment time for tumor cells

[4] = test system: HCC827; experiment: CCK-8 proliferation, HCC827; details: read-out: Inhibitory activity (IC50) on tumor cell proliferation, HCC827
Method: as §2, §3

[5] = test system: EGFR; experiment: Western blot degradation of EGFR (H1975 Cell); details: Table D2
Summary of the method: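 Quantification by ImageJ densitometry of Western blot bands: DC50 is the fitted concentration halving band intensity relative to DMSO. Percent remaining uses internal-control normalization, and degradation rate is its complement.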

[6] = Homo sapiens, PC-9, CCK-8, 96 hours
[7] = Homo sapiens, NCI-H1975, CCK-8, 96 hours
[8] = Homo sapiens, NCI-H1975, CCK-8, osimertinib-resistant H1975 cells obtained by treating H1975 cells with 1 µM Osimertinib for 3 months, read-out: Inhibitory activity (IC50) on tumor cell proliferation, H1975-1µm Osimertinib
[9] = Homo sapiens, HCC827, CCK-8, 96 hours

Row | SMILES | IC50 [1, 6] | IC50 [2, 7] | IC50 [3, 8] | IC50 [4, 9] | Degradation of substrate protein EGFR (substrate protein remaining %) [5] | other results
1 | C=CC(=O)Nc1cc(Nc2nccc(-c3cn(C)c4ccccc34)n2)c(OC)cc1N(C)CCN(C)C [osimertinib, reference compound] |  |  |  |  |  | IC50 ([1]; Homo sapiens, PC-9, 96 h): 10 to 50 nM; IC50 ([2]; Homo sapiens, NCI-H1975, 96 h): 100 to 500 nM; IC50 ([3]; Homo sapiens, NCI-H1975, read-out: Inhibitory activity (IC50) on tumor cell proliferation, H1975-1µm Osimertinib): > 10000 nM; IC50 ([4]; Homo sapiens, HCC827, 96 h): 10 to 50 nM
2 | CC(C)n1nc(N2CCC(N(C)Cc3ccc(N4CCC(=O)NC4=O)cc3)CC2)c2cnc(Nc3ccnc(-c4cnn(S(=O)(=O)C5CC5)c4)n3)cc21 [GT-06021, 1-(4-(((1-(6-((2-(1-(cyclopropylsulfonyl)-1H-pyrazol-4-yl)pyrimidin-4-yl)amino)-1-isopropyl-1H-pyrazolo[4,3-c]pyridin-3-yl)piperidin-4-yl)(methyl)amino)methyl)phenyl)dihydropyrimidine-2,4(1H,3H)-dione] | 100 to 500 nM |  | 500 to 1000 nM | 100 to 500 nM | A (A is defined as 0% ≤ substrate protein remaining % ≤ 80%) | 
3 | CC(C)n1nc(N2CCC(N3CCN(Cc4ccc(N5CCC(=O)NC5=O)nc4)CC3)CC2)c2cnc(Nc3ccnc(-c4cnn(S(=O)(=O)C5CC5)c4)n3)cc21 [GT-06082, 1-(5-((4-(1-(6-((2-(1-(cyclopropylsulfonyl)-1H-pyrazol-4-yl)pyrimidin-4-yl)amino)-1-isopropyl-1H-pyrazolo[4,3-c]pyridin-3-yl)piperidin-4-yl)piperazin-1-yl)methyl)pyridin-2-yl)dihydropyrimidine-2,4(1H,3H)-dione] | 100 to 500 nM | 100 to 500 nM | 10 to 50 nM |  |  | 
4 | COc1cc(N2CCC(N3CCN(CCC#Cc4cccc5c4CN(C4CCC(=O)NC4=O)C5=O)CC3)CC2)ccc1Nc1ncc(Cl)c(Nc2ccccc2P(C)(C)=O)n1 (stereo not shown) [HJM-561, reference compound] |  |  |  |  |  | IC50 ([1]; CCK-8, 96 hours): 100 to 500 nM; IC50 ([2]; CCK-8, 96 hours): 50 to 100 nM; IC50 ([3]; CCK-8, osimertinib-resistant H1975 cells obtained by treating H1975 cells with 1 µM Osimertinib for 3 months, read-out: Inhibitory activity (IC50) on tumor cell proliferation, H1975-1µm Osimertinib): 1000 to 5000 nM; IC50 ([4]; CCK-8, 96 hours): 500 to 1000 nM
5 | COc1cc(N2CCC(N(C)Cc3ccc(N4CCC(=O)NC4=O)cn3)CC2)c(C)cc1Nc1ncc(Br)c(Nc2ccc3nccnc3c2P(C)(C)=O)n1 [GT-05952, 1-(6-(((1-(4-((5-bromo-4-((5-(dimethylphosphoryl)quinoxalin-6-yl)amino)pyrimidin-2-yl)amino)-5-methoxy-2-methylphenyl)piperidin-4-yl)(methyl)amino)methyl)pyridin-3-yl)dihydropyrimidine-2,4(1H,3H)-dione] | 100 to 500 nM |  | 500 to 1000 nM | 500 to 1000 nM | A (A is defined as 0% ≤ substrate protein remaining % ≤ 80%) | 
6 | CC(C)n1nc(N2CCC(N3CCN(Cc4cccc(N5CCC(=O)NC5=O)c4)CC3)CC2)c2cnc(Nc3ccnc(-c4cnn(S(=O)(=O)C5CC5)c4)n3)cc21 [GT-06080, 1-(3-((4-(1-(6-((2-(1-(cyclopropylsulfonyl)-1H-pyrazol-4-yl)pyrimidin-4-yl)amino)-1-isopropyl-1H-pyrazolo[4,3-c]pyridin-3-yl)piperidin-4-yl)piperazin-1-yl)methyl)phenyl)dihydropyr imidine-2,4(1H,3H)-dione] | 500 to 1000 nM |  | 500 to 1000 nM |  |  | 

Now from value to compound, other results behind:

Row | IC50 [1, 6] | IC50 [2, 7] | IC50 [3, 8] | IC50 [4, 9] | SMILES | Degradation of substrate protein EGFR (substrate protein remaining %) [5] | other results
7 | 50 to 100 nM | 100 to 500 nM | 100 to 500 nM | 100 to 500 nM | COc1cc(N2CCN(Cc3ccc(N4CCC(=O)NC4=O)nc3)CC2)c(C)cc1Nc1ncc(Br)c(Nc2ccc3nccnc3c2P(C)(C)=O)n1 [GT-05947, 1-(5-((4-(4-((5-bromo-4-((5-(dimethylphosphoryl)quinoxalin-6-yl)amino)pyrimidin-2-yl)amino)-5-methoxy-2-methylphenyl)piperazin-1-yl)methyl)pyridin-2-yl)dihydropyrimidine-2,4(1H,3H)-dione] | A (A is defined as 0% ≤ substrate protein remaining % ≤ 80%) | 
8 | 50 to 100 nM | 50 to 100 nM | 100 to 500 nM | 50 to 100 nM | COc1cc(N2CCC(N3CCN(Cc4cccc(N5CCC(=O)NC5=O)c4)CC3)CC2)c(C)cc1Nc1ncc(Br)c(Nc2ccc3nccnc3c2P(C)(C)=O)n1 [GT-04260, 1-(3-((4-(1-(4-((5-bromo-4-((5-(dimethylphosphoryl)quinoxalin-6-yl)amino)pyrimidin-2-yl)amino)-5-methoxy-2-methylphenyl)piperidin-4-yl)piperazin-1-yl)methyl)phenyl)dihydropyrimidine-2,4(1H,3H)-dione] | A (A is defined as 0% ≤ substrate protein remaining % ≤ 80%) | 
9 | 1 to 10 nM |  | 500 to 1000 nM | 10 to 50 nM | O=C1CCN(c2ccc(CN3CCN(C4CCN(c5ccc(NC6=NC=C7N=C(Nc8ccccc8)N(C8CCCC8)C7N6)cc5)CC4)CC3)cn2)C(=O)N1 (stereo not shown) [GT-05942, 1-(5-((4-(1-(4-((9-cyclopentyl-8-(phenylamino)-4,9-dihydro-3H-purin-2-yl)amino)phenyl)piperidin-4-yl)piperazin-1-yl)methyl)pyridin-2-yl)dihydropyrimidine-2,4(1H,3H)-dione] | A (A is defined as 0% ≤ substrate protein remaining % ≤ 80%) | 
10 | 100 to 500 nM | 100 to 500 nM | 100 to 500 nM | 100 to 500 nM | COc1cc(N2CCN(Cc3cccc(N4CCC(=O)NC4=O)c3)CC2)c(C)cc1Nc1ncc(Br)c(Nc2ccc3nccnc3c2P(C)(C)=O)n1 [GT-04206, 1-(3-((4-(4-((5-bromo-4-((5-(dimethylphosphoryl)quinoxalin-6-yl)amino)pyrimidin-2-yl)amino)-5-methoxy-2-methylphenyl)piperazin-1-yl)methyl)phenyl)dihydropyrimidine-2,4(1H,3H)-dione] | A (A is defined as 0% ≤ substrate protein remaining % ≤ 80%) | 
11 | 100 to 500 nM |  | 500 to 1000 nM |  | COc1cc(N2CCC(N(C)Cc3ccc(N4CCC(=O)NC4=O)cc3)CC2)c(C)cc1Nc1ncc(Br)c(Nc2ccc3nccnc3c2P(C)(C)=O)n1 [GT-05951, 1-(4-(((1-(4-((5-bromo-4-((5-(dimethylphosphoryl)quinoxalin-6-yl)amino)pyrimidin-2-yl)amino)-5-methoxy-2-methylphenyl)piperidin-4-yl)(methyl)amino)methyl)phenyl)dihydropyrimidine-2,4(1H,3H)-dione] | A (A is defined as 0% ≤ substrate protein remaining % ≤ 80%) | 
12 | 100 to 500 nM | 50 to 100 nM | 500 to 1000 nM | 100 to 500 nM | COc1cc(N2CCC(N(C)Cc3ccc(C4CCC(=O)NC4=O)cc3)CC2)c(C)cc1Nc1ncc(Br)c(Nc2ccc3nccnc3c2P(C)(C)=O)n1 (stereo not shown) [GT-03930, 3-(4-(((1-(4-((5-bromo-4-((5-(dimethylphosphoryl)quinoxalin-6-yl)amino)pyrimidin-2-yl)amino)-5-methoxy-2-methylphenyl)piperidin-4-yl)(methyl)amino)methyl)phenyl)piperidine-2,6-dione] |  | 
13 | 50 to 100 nM |  | 100 to 500 nM | 100 to 500 nM | CC(C)n1nc(N2CCC(N(C)Cc3ccc(C4CCC(=O)NC4=O)cc3)CC2)c2cnc(Nc3ccnc(-c4cnn(S(=O)(=O)C5CC5)c4)n3)cc21 (stereo not shown) [GT-06020, 3-(4-(((1-(6-((2-(1-(cyclopropylsulfonyl)-1H-pyrazol-4-yl)pyrimidin-4-yl)amino)-1-isopropyl-1H-pyrazolo[4,3-c]pyridin-3-yl)piperidin-4-yl)(methyl)amino)methyl)phenyl)piperidine-2,6-dione] |  | 
14 | 1 to 10 nM | 50 to 100 nM | 500 to 1000 nM | 1 to 10 nM | O=C1CCC(c2ccc(CN3CCN(C4CCN(c5ccc(Nc6ncc7nc(Nc8ccccc8)n(C8CCCC8)c7n6)cc5)CC4)CC3)cc2)C(=O)N1 (stereo not shown) [GT-05915, 3-(4-((4-(1-(4-((9-cyclopentyl-8-(phenylamino)-9H-purin-2-yl)amino)phenyl)piperidin-4-yl)piperazin-1-yl)methyl)phenyl)piperidine-2,6-dione] | A (A is defined as 0% ≤ substrate protein remaining % ≤ 80%) | 

Reference: patent EP4678638A1, “NEW E3 UBIQUITIN LIGASE LIGAND, PROTEIN DEGRADATION AGENT AND USE THEREOF” (priority 2023, dated 2024)
